Data taken from BigSolDB 2.1.

O=[PH](O)c1ccccc1
Conditions | solubility (mole fraction)
in 2-ethoxyethanol, 288.15 K | 0.124
in 2-ethoxyethanol, 293.85 K | 0.136
in 2-ethoxyethanol, 298.25 K | 0.148
in 2-ethoxyethanol, 303.45 K | 0.165
in 2-ethoxyethanol, 313.15 K | 0.205
in 2-ethoxyethanol, 318.25 K | 0.227
in 2-ethoxyethanol, 323.65 K | 0.239
in 2-ethoxyethanol, 328.25 K | 0.259
in 2-ethoxyethanol, 333.45 K | 0.283
in 2-ethoxyethanol, 338.35 K | 0.308
in 2-ethoxyethanol, 343.25 K | 0.344
in 2-ethoxyethanol, 348.25 K | 0.372
in 2-ethoxyethanol, 353.25 K | 0.397
in 2-ethoxyethanol, 358.55 K | 0.434
in 2-ethoxyethanol, 363.15 K | 0.459
in acetone, 293.35 K | 0.0305
in acetone, 298.15 K | 0.0448
in acetone, 303.55 K | 0.0671
in acetone, 308.25 K | 0.0879
in acetone, 313.45 K | 0.124
in acetone, 318.25 K | 0.186
in acetone, 323.35 K | 0.256
in benzene, 299.15 K | 0.054
in benzene, 303.65 K | 0.0709
in benzene, 308.55 K | 0.111
in benzene, 313.25 K | 0.145
in benzene, 318.45 K | 0.225
in benzene, 323.15 K | 0.308
in benzene, 328.35 K | 0.415
in benzene, 333.15 K | 0.554
in chloroform, 293.15 K | 0.134
in chloroform, 298.45 K | 0.157
in chloroform, 303.25 K | 0.186
in chloroform, 308.25 K | 0.228
in chloroform, 313.15 K | 0.269
in chloroform, 318.35 K | 0.315
in chloroform, 323.25 K | 0.357
in dichloromethane, 288.15 K | 0.0292
in dichloromethane, 293.35 K | 0.0386
in dichloromethane, 296.25 K | 0.0458
in dichloromethane, 298.15 K | 0.0528
in dichloromethane, 303.45 K | 0.0709
in dichloromethane, 308.25 K | 0.091
in ethanol, 283.25 K | 0.0889
in ethanol, 288.65 K | 0.112
in ethanol, 293.15 K | 0.136
in ethanol, 298.35 K | 0.168
in ethanol, 303.45 K | 0.205
in ethanol, 308.25 K | 0.245
in ethanol, 313.45 K | 0.297
in ethanol, 318.55 K | 0.356
in ethanol, 323.35 K | 0.42
in ethyl acetate, 293.45 K | 0.0144
in ethyl acetate, 298.15 K | 0.0185
in ethyl acetate, 303.25 K | 0.0275
in ethyl acetate, 313.45 K | 0.0494
in ethyl acetate, 318.25 K | 0.0661
in ethyl acetate, 328.35 K | 0.107
in ethyl acetate, 333.25 K | 0.136
in ethyl acetate, 338.55 K | 0.174
in methanol, 293.55 K | 0.173
in methanol, 298.15 K | 0.215
in methanol, 303.75 K | 0.28
in methanol, 308.35 K | 0.344
in methanol, 313.45 K | 0.429
in methanol, 318.25 K | 0.526
in methanol, 323.65 K | 0.655
in toluene, 293.15 K | 0.0187
in toluene, 298.35 K | 0.0282
in toluene, 303.45 K | 0.0389
in toluene, 313.25 K | 0.0652
in toluene, 318.15 K | 0.0934
in toluene, 323.35 K | 0.125
in toluene, 328.15 K | 0.162
in toluene, 333.55 K | 0.199
in toluene, 338.45 K | 0.255
in toluene, 343.15 K | 0.316
in toluene, 348.35 K | 0.413
in water, 297.79 K | 0.0095
in water, 300.25 K | 0.0111
in water, 302.4 K | 0.0129
in water, 305.22 K | 0.0159
in water, 309.93 K | 0.0218
in water, 312.84 K | 0.0305
in water, 318.15 K | 0.0433
in water, 323.35 K | 0.0572
in water, 328.15 K | 0.085
in water, 333.45 K | 0.11
in water, 338.25 K | 0.161
in water, 343.15 K | 0.208

c1ccc(OP2(Oc3ccccc3)=NP(Oc3ccccc3)(Oc3ccccc3)=NP(Oc3ccccc3)(Oc3ccccc3)=N2)cc1
Conditions | solubility (mole fraction)
in 2-ethoxyethanol, 298.15 K | 0.0065
in 2-ethoxyethanol, 300.95 K | 0.0074
in 2-ethoxyethanol, 303.25 K | 0.0081
in 2-ethoxyethanol, 310.15 K | 0.0106
in 2-ethoxyethanol, 314.55 K | 0.0126
in 2-ethoxyethanol, 318.75 K | 0.0148
in 2-ethoxyethanol, 323.65 K | 0.0182
in 2-ethoxyethanol, 328.05 K | 0.0212
in 2-ethoxyethanol, 333.15 K | 0.0259
in 2-ethoxyethanol, 343.25 K | 0.0352
in 2-ethoxyethanol, 348.35 K | 0.042
in 2-ethoxyethanol, 353.15 K | 0.0478
in THF, 293.25 K | 0.151
in THF, 298.15 K | 0.175
in THF, 304.35 K | 0.2
in THF, 308.25 K | 0.223
in THF, 314.25 K | 0.253
in THF, 318.45 K | 0.285
in THF, 323.15 K | 0.315
in THF, 328.25 K | 0.346
in acetone, 293.15 K | 0.0295
in acetone, 296.45 K | 0.0349
in acetone, 300.25 K | 0.0423
in acetone, 304.35 K | 0.0496
in acetone, 308.25 K | 0.0588
in acetone, 314.25 K | 0.0782
in acetone, 318.35 K | 0.093
in acetone, 323.15 K | 0.117
in acetonitrile, 298.25 K | 0.004
in acetonitrile, 303.55 K | 0.006
in acetonitrile, 308.25 K | 0.0082
in acetonitrile, 313.35 K | 0.0122
in acetonitrile, 318.35 K | 0.017
in acetonitrile, 323.45 K | 0.0243
in acetonitrile, 328.15 K | 0.0332
in acetonitrile, 333.25 K | 0.0457
in dichloromethane, 293.35 K | 0.099
in dichloromethane, 295.95 K | 0.111
in dichloromethane, 300.35 K | 0.139
in dichloromethane, 303.15 K | 0.158
in dichloromethane, 306.05 K | 0.179
in dichloromethane, 310.35 K | 0.219
in diethyl ether, 293.15 K | 0.0101
in diethyl ether, 296.25 K | 0.0122
in diethyl ether, 299.05 K | 0.014
in diethyl ether, 300.35 K | 0.0154
in diethyl ether, 303.15 K | 0.0178
in diethyl ether, 306.05 K | 0.0211
in ethanol, 298.25 K | 0.0096
in ethanol, 300.95 K | 0.0099
in ethanol, 303.25 K | 0.0102
in ethanol, 308.15 K | 0.011
in ethanol, 313.45 K | 0.0119
in ethanol, 318.75 K | 0.0129
in ethanol, 323.05 K | 0.0136
in ethanol, 328.35 K | 0.0147
in ethyl acetate, 298.15 K | 0.0592
in ethyl acetate, 300.95 K | 0.0655
in ethyl acetate, 303.25 K | 0.0699
in ethyl acetate, 308.25 K | 0.0829
in ethyl acetate, 313.25 K | 0.0983
in ethyl acetate, 319.05 K | 0.119
in ethyl acetate, 323.15 K | 0.136
in ethyl acetate, 328.25 K | 0.159
in n-heptane, 298.15 K | 0.0035
in n-heptane, 303.45 K | 0.0039
in n-heptane, 308.35 K | 0.0044
in n-heptane, 313.05 K | 0.0049
in n-heptane, 318.25 K | 0.0056
in n-heptane, 323.35 K | 0.0062
in n-heptane, 328.25 K | 0.0069
in n-heptane, 333.15 K | 0.0075
in toluene, 298.05 K | 0.0572
in toluene, 300.95 K | 0.065
in toluene, 303.35 K | 0.0717
in toluene, 310.25 K | 0.0904
in toluene, 314.45 K | 0.106
in toluene, 318.65 K | 0.123
in toluene, 323.55 K | 0.15
in toluene, 327.95 K | 0.173
in toluene, 333.15 K | 0.209
in toluene, 338.25 K | 0.246

CP(=O)(O)c1ccccc1
Conditions | solubility (mole fraction)
in 2-ethoxyethanol, 298.15 K | 0.252
in 2-ethoxyethanol, 303.15 K | 0.289
in 2-ethoxyethanol, 313.25 K | 0.348
in 2-ethoxyethanol, 318.15 K | 0.397
in 2-ethoxyethanol, 323.35 K | 0.441
in 2-ethoxyethanol, 328.25 K | 0.472
in 2-ethoxyethanol, 333.15 K | 0.519
in 2-ethoxyethanol, 338.45 K | 0.587
in 2-ethoxyethanol, 343.35 K | 0.639
in 2-ethoxyethanol, 348.35 K | 0.697
in 2-ethoxyethanol, 353.15 K | 0.751
in acetone, 293.15 K | 0.0473
in acetone, 298.15 K | 0.0609
in acetone, 303.25 K | 0.0816
in acetone, 308.15 K | 0.0995
in acetone, 313.35 K | 0.127
in acetone, 318.15 K | 0.165
in acetone, 323.25 K | 0.204
in benzene, 293.25 K | 0.0386
in benzene, 298.15 K | 0.0541
in benzene, 303.15 K | 0.0809
in benzene, 308.35 K | 0.113
in benzene, 313.25 K | 0.163
in benzene, 318.15 K | 0.218
in benzene, 323.25 K | 0.301
in benzene, 328.15 K | 0.419
in benzene, 333.35 K | 0.563
in chloroform, 293.15 K | 0.112
in chloroform, 298.25 K | 0.132
in chloroform, 303.15 K | 0.156
in chloroform, 308.35 K | 0.188
in chloroform, 313.15 K | 0.214
in chloroform, 318.45 K | 0.255
in chloroform, 323.15 K | 0.288
in chloroform, 328.15 K | 0.34
in dichloromethane, 288.55 K | 0.0465
in dichloromethane, 293.65 K | 0.0697
in dichloromethane, 296.15 K | 0.0904
in dichloromethane, 298.35 K | 0.104
in dichloromethane, 303.25 K | 0.164
in dichloromethane, 308.35 K | 0.235
in ethanol, 293.25 K | 0.205
in ethanol, 298.15 K | 0.266
in ethanol, 303.35 K | 0.333
in ethanol, 308.25 K | 0.39
in ethanol, 313.55 K | 0.486
in ethanol, 318.45 K | 0.614
in ethanol, 323.15 K | 0.734
in ethanol, 328.25 K | 0.872
in ethyl acetate, 288.35 K | 0.0484
in ethyl acetate, 293.15 K | 0.0621
in ethyl acetate, 298.25 K | 0.075
in ethyl acetate, 303.45 K | 0.0941
in ethyl acetate, 313.35 K | 0.152
in ethyl acetate, 318.15 K | 0.182
in ethyl acetate, 328.15 K | 0.265
in ethyl acetate, 333.35 K | 0.304
in ethyl acetate, 338.15 K | 0.359
in ethyl acetate, 343.25 K | 0.428
in methanol, 298.35 K | 0.317
in methanol, 303.15 K | 0.343
in methanol, 308.15 K | 0.372
in methanol, 313.25 K | 0.406
in methanol, 318.35 K | 0.439
in methanol, 323.15 K | 0.471
in methanol, 328.25 K | 0.499
in toluene, 293.25 K | 0.12
in toluene, 298.35 K | 0.147
in toluene, 303.25 K | 0.168
in toluene, 308.35 K | 0.204
in toluene, 313.15 K | 0.229
in toluene, 323.25 K | 0.327
in toluene, 328.35 K | 0.377
in toluene, 333.25 K | 0.418
in toluene, 338.15 K | 0.479
in toluene, 343.45 K | 0.564
in water, 298.15 K | 0.0154
in water, 303.35 K | 0.0204
in water, 310.45 K | 0.027
in water, 314.25 K | 0.032
in water, 320.45 K | 0.0414
in water, 324.15 K | 0.0477
in water, 329.25 K | 0.0579
in water, 333.65 K | 0.0679
in water, 338.75 K | 0.0865
in water, 343.45 K | 0.0968
in water, 348.25 K | 0.12
